In the assay the target is T1, human apelin receptor (APJ, APLNR) (Homo sapiens, UniProt P35414).
T1 construct: host or cells: Chinese hamster ovary (CHO) cells, stably integrated receptor
T1 sequence (P35414 1-380): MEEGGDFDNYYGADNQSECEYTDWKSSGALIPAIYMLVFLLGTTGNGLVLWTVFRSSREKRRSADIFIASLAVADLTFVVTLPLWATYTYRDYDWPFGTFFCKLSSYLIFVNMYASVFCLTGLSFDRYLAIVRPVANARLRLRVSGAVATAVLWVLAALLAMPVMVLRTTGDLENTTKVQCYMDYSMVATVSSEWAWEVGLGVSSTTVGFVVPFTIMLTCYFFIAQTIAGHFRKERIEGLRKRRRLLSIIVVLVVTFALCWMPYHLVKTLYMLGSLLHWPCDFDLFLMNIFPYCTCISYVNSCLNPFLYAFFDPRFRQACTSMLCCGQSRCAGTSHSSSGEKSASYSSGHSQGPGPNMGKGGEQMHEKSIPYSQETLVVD
Put plainly: cell-based cAMP assay (TR-FRET) in Chinese hamster ovary cells expressing the apelin receptor. The note with it: EC50 = 50% of control (apelin-13, 1 nM) response; cAMP in CHO cells, 0.5 h incubation; read-out: Potency Category. The procedure:
This example illustrates the biological activity of various compounds tested against the APJ receptor.
Commercially available cell lines were used to screen chemical libraries to identify compounds that potently and selectively activated the human apelin receptor. The assays disclosed herein were performed using cell lines from DiscoveX, Inc.
Biological activity was determined to the cell-based assay. This assay detects activation of the receptor by reporting on intracellular cyclic adenosine monophosphate (cAMP) level. Chinese hamster ovary cells engineered to express the stably integrated human appellant receptor (APJ, AGTRL-one, APLNR), pleaded into the wells of the microtiter plate. Cells were stimulated with […] to increase intracellular cyclic AMP. Immediately following, compounds were added to the range of final concentrations 0.0-100 μM, in DMSO (not to exceed a final DMSO concentration greater than 1% v/v), and allowed to incubate with the cells for 0.5 h. At the end of the incubation, cells were lysed to stop APJ signaling and cAMP was quantified using a commercially available competitive immunoassay kit that applies homogenous time-resolved florescence energy transfer (TR-FRET). The assay is based on the competition between a europium (Eu) chelate-labeled cAMP donor tracer and cellular cAMP for binding sites on a cAMP-specific monoclonal antibody labeled with an acceptor fluorophore. When antibodies are bound to the cAMP tracer light emissions at 320 nm stimulate the energy transfer from the donor to the acceptor, which in turn emits light at 665 nm. In the presence of competitive unlabeled cAMP (derived from the activity of the receptor or forskolin-stimulated production of cAMP), the labelled cAMP tracer is dissociated from the cAMP antibody, resulting in a loss of FRET signal. The amount of light emitted by the FRET is inversely proportional to the cAMP generated by the cell/receptor system. Potency and efficacy at APJ are reported in reference to the canonical APJ receptor agonist apelin-13 when tested at 1 nM.
Compound competency is reported as the effective concentration required to effect 50% (EC 50) of the control (apelin—13, 1 nM) response in micromole are (μM) units. Compound efficacy (% response) is reported as a percentage of the maximal apein-13 response at 1 nM (control). Potencies were calculated by fitting a four-point logistic curve to concentration response consisting of at least 10 discrete data points spanning effective range of the compounds in the cell-based assay that measures cAMP. In Table 1, the Potency Categories are A, B, C and D. Category A EC50>500 nM; Category B 200<EC50<500 nM; Category C 100<EC50<200 nM; Category D<100 nM.
For orientation: cAMP levels reflect the balance of adenylyl cyclase and phosphodiesterase activity.

Some results are limits rather than exact numbers.

Consider `CCOC(=O)c1cc(C(C)C)n2nc(C)c(-c3c(C)cc(F)cc3C)c2n1` [Compound 47, ethyl 3-(4-fluoro-2,6-dimethylphenyl)-2-methyl-7-(methylethyl)-8-hydropyrazolo[1,5-a]pyrimidine-5-carboxylate], for which the EC50 was over 500 nM.
The same measure for `COc1cc(C)c(-c2c(C)nn3c(C(C)C)cc(C(=O)O)nc23)c(C)c1` [Compound 48, 3-(4-methoxy-2,6-dimethylphenyl)-2-methyl-7-(methylethyl)-8-hydropyrazolo[1,5-a]pyrimidine-5-carboxylic acid]: over 500 nM.
Consider `CCOC(=O)c1cc(C(C)C)n2nc(C)c(-c3c(C)cccc3F)c2n1` [Compound 49, ethyl 3-(6-fluoro-2-methylphenyl)-2-methyl-7-(methylethyl)-8-hydropyrazolo[1,5-a]pyrimidine-5-carboxylate], for which the EC50 is over 500 nM.
The same measure for `Cc1cc(F)cc(C)c1-c1c(C)nn2c(C(C)C)cc(C(=O)O)nc12` [Compound 50, 3-(4-fluoro-2,6-dimethylphenyl)-2-methyl-7-(methylethyl)-8-hydropyrazolo[1,5-a]pyrimidine-5-carboxylic acid]: 100 to 200 nM.
As for `Cc1cccc(F)c1-c1c(C)nn2c(C(C)C)cc(C(=O)O)nc12` [Compound 51, 3-(6-fluoro-2-methylphenyl)-2-methyl-7-(methylethyl)-8-hydropyrazolo[1,5-a]pyrimidine-5-carboxylic acid], the figure is 200 to 500 nM; as for `CCOC(=O)c1cc(C(C)C)n2ncc(-c3c(C)cccc3C)c2n1` [Compound 52, ethyl 3-(2,6-dimethylphenyl)-7-(methylethyl)-8-hydropyrazolo[1,5-a]pyrimidine-5-carboxylate], over 500 nM.
As for `Cc1cccc(C)c1-c1cnn2c(C(C)C)cc(C(=O)O)nc12` [Compound 53, 3-(2,6-dimethylphenyl)-7-(methylethyl)-8-hydropyrazolo[1,5-a]pyrimidine-5-carboxylic acid], the figure is over 500 nM.
With `CCCc1c(C)c(C(=O)OCC)nc2c(-c3c(C)cccc3C)c(C)nn12` [Compound 54], the EC50 is over 500 nM.
With `CCCc1cc(C(=O)O)nc2c(-c3c(C)cccc3C)c(C)nn12` [Compound 55, 3-(2,6-dimethylphenyl)-2-methyl-7-propyl-8-hydropyrazolo[1,5-a]pyrimidine-5-carboxylic acid], the EC50 is over 500 nM.
As for `CCOC(=O)c1cc(C)n2nc(C)c(-c3c(C)cccc3C)c2n1` [Compound 56, ethyl 3-(2,6-dimethylphenyl)-2,7-dimethyl-8-hydropyrazolo[1,5-a]pyrimidine-5-carboxylate], the figure is over 500 nM.
In the case of `Cc1cccc(C)c1-c1c(C)nn2c(C)cc(C(=O)O)nc12` [Compound 57, 3-(2,6-dimethylphenyl)-2,7-dimethyl-8-hydropyrazolo[1,5-a]pyrimidine-5-carboxylic acid], the EC50 is over 500 nM.
The same measure for `CCOC(=O)c1cc(CC)n2nc(C)c(-c3c(C)cccc3C)c2n1` [Compound 58, ethyl 3-(2,6-dimethylphenyl)-7-ethyl-2-methyl-8-hydropyrazolo[1,5-a]pyrimidine-5-carboxylate]: over 500 nM.
The same measure for `CCOC(=O)c1cc(C2CC2)n2nc(C)c(-c3c(C)cccc3C)c2n1` [Compound 59, ethyl 3-(2,6-dimethylphenyl)-7-cyclopropyl-2-methyl-8-hydropyrazolo[1,5-a]pyrimidine-5-carboxylate]: over 500 nM.
The same measure for `CCOC(=O)c1cc(C2CCC2)n2nc(C)c(-c3c(C)cccc3C)c2n1` [Compound 60, ethyl 3-(2,6-dimethylphenyl)-7-cyclobutyl-2-methyl-8-hydropyrazolo[1,5-a]pyrimidine-5-carboxylate]: over 500 nM; for `Cc1cccc(C)c1-c1c(C)nn2c(C3CCC3)cc(C(=O)O)nc12` [Compound 61, 3-(2,6-dimethylphenyl)-7-cyclobutyl-2-methyl-8-hydropyrazolo[1,5-a]pyrimidine-5-carboxylic acid]: 100 to 200 nM.
Regarding `Cc1cccc(C)c1-c1c(C)nn2c(C(C)C)cc(CO)nc12` [Compound 62, [3-(2,6-dimethylphenyl)-2-methyl-7-(methylethyl)-8-hydropyrazolo[1,5-a]pyrimidin-5-yl]methan-1-ol], the EC50 was over 500 nM.
As for `Cc1cccc(C)c1-c1c(C)nn2c(C(C)C)cc(C(O)C(F)(F)F)nc12` (stereo not shown) [Compound 63, 1-[3-(2,6-dimethylphenyl)-2-methyl-7-(methylethyl)(8-hydropyrazolo[1,5-a]pyrimidin-5-yl)]-2,2,2-trifluoroethan-1-ol], the figure is over 500 nM; as for `Cc1cccc(C)c1-c1c(C)nn2c(C(C)C)cc(C(=O)C(F)(F)F)nc12` [Compound 64, 1-[3-(2,6-dimethylphenyl)-2-methyl-7-(methylethyl)(8-hydropyrazolo[1,5-a]pyrimidin-5-yl)]-2,2,2-trifluoroethan-1-one], over 500 nM; as for `CCOC(=O)c1cc(C(C)C)n2nc(C)c(-c3c(C)cccc3OC)c2n1` [Compound 65, ethyl 3-(6-methoxy-2-methylphenyl)-2-methyl-7-(methylethyl)-8-hydropyrazolo[1,5-a]pyrimidine-5-carboxylate], over 500 nM.
In the case of `CCOC(=O)c1cc(C(C)C)n2nc(C)c(-c3c(C)cc(Cl)cc3C)c2n1` [Compound 66, ethyl 3-(4-chloro-2,6-dimethylphenyl)-2-methyl-7-(methylethyl)-8-hydropyrazolo[1,5-a]pyrimidine-5-carboxylate], the EC50 is over 500 nM.
As for `CCOC(=O)c1cc(C(C)C)n2nc(C)c(-c3c(C)cccc3C(=O)OCC)c2n1` [Compound 67, ethyl 3-[2-(ethoxycarbonyl)-6-methylphenyl]-2-methyl-7-(methylethyl)-8-hydropyrazolo[1,5-a]pyrimidine-5-carboxylate], the figure is over 500 nM.
The same measure for `Cc1cccc(C)c1-c1c(C)nn2c(C3CCCC3)cc(C(=O)O)nc12` [Compound 68, 3-(2,6-dimethylphenyl)-7-cyclopentyl-2-methyl-8-hydropyrazolo[1,5-a]pyrimidine-5-carboxylic acid]: 200 to 500 nM; for `CCOC(=O)c1cc(C2CCCC2)n2nc(C)c(-c3c(C)cccc3C)c2n1` [Compound 69, ethyl 3-(2,6-dimethylphenyl)-7-cyclopentyl-2-methyl-8-hydropyrazolo[1,5-a]pyrimidine-5-carboxylate]: over 500 nM; for `Cc1cc(Cl)cc(C)c1-c1c(C)nn2c(C(C)C)cc(C(=O)O)nc12` [Compound 70, 3-(4-chloro-2,6-dimethylphenyl)-2-methyl-7-(methylethyl)-8-hydropyrazolo[1,5-a]pyrimidine-5-carboxylic acid]: over 500 nM.
On to `Cc1cccc(C)c1-c1c(C)nn2c(C3CC3)cc(C(=O)O)nc12` [Compound 71, 3-(2,6-dimethylphenyl)-7-cyclopropyl-2-methyl-8-hydropyrazolo[1,5-a]pyrimidine-5-carboxylic acid], for which the EC50 fell in the range of 200 to 500 nM.
The same measure for `CCc1cc(C(=O)O)nc2c(-c3c(C)cccc3C)c(C)nn12` [Compound 72, 3-(2,6-dimethylphenyl)-7-ethyl-2-methyl-8-hydropyrazolo[1,5-a]pyrimidine-5-carboxylic acid]: over 500 nM.
Regarding `CCOC(=O)c1cc(C(C)C)n2nc(C(C)C)c(-c3c(C)cccc3C)c2n1` [Compound 73, ethyl 2,7-bis(methylethyl)-3-(2,6-dimethylphenyl)-8-hydropyrazolo[1,5-a]pyrimidine-5-carboxylate], the EC50 was over 500 nM.
The same measure for `CCc1nn2c(C(C)C)cc(C(=O)O)nc2c1-c1c(C)cccc1C` [Compound 74, 3-(2,6-dimethylphenyl)-2-ethyl-7-(methylethyl)-8-hydropyrazolo[1,5-a]pyrimidine-5-carboxylic acid]: over 500 nM.

The values above are taken from patent US12006321B2, “Substituted pyrazolo[1,5-a]pyrimidines as apelin receptor agonists” (Sanford Burnham Prebys Medical Discovery Institute, priority 2017, dated 2024).
